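Each compound was tested at five concentrations against cells in 96-well plates for 48 hours. The concentration for 50% growth inhibition is given as GI50.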 Active and inactive are the calls of the source. Cut-off read from the data, not from the text of the source: active = GI50 up to about 1.1 µM and inactive = higher.
Columns and labels:
Assay in all cases: NCI tumour cell line growth inhibition, 48 h
Malme-3M = system: Malme-3M
A498 = system: A498
NCI-H226 = system: NCI-H226
SF-295 = system: SF-295
MDA-MB-435 = system: MDA-MB-435
EKVX = system: EKVX
DU-145 = system: DU-145
BT-549 = system: BT-549
TK-10 = system: TK-10
OVCAR-5 = system: OVCAR-5
M14 = system: M14
ACHN = system: ACHN
HCT-116 = system: HCT-116
IGROV-1 = system: IGROV-1
OVCAR-4 = system: OVCAR-4
MDA-N = system: MDA-N
NCI/ADR-RES = system: NCI/ADR-RES
K562 = system: K562
SF-539 = system: SF-539
CCRF-CEM = system: CCRF-CEM

Row | SMILES | GI50 (Malme-3M) | GI50 (A498) | GI50 (NCI-H226) | GI50 (SF-295) | GI50 (MDA-MB-435) | GI50 (EKVX) | GI50 (DU-145) | GI50 (BT-549) | GI50 (TK-10) | GI50 (OVCAR-5) | GI50 (M14) | GI50 (ACHN) | GI50 (HCT-116) | GI50 (IGROV-1) | GI50 (OVCAR-4) | GI50 (MDA-N) | GI50 (NCI/ADR-RES) | GI50 (K562) | GI50 (SF-539) | GI50 (CCRF-CEM)
1 | NC(Cc1cc(I)c(Oc2ccc(O)c(I)c2)c(I)c1)C(=O)O (stereo not drawn) [RATHYRONINE] | 36.8 µM (inactive) | 35.7 µM (inactive) | > 100 µM (inactive) | > 100 µM (inactive) | > 100 µM (inactive) | > 100 µM (inactive) | > 100 µM (inactive) | 61.1 µM (inactive) | 42 µM (inactive) | > 100 µM (inactive) | > 100 µM (inactive) | > 100 µM (inactive) | > 100 µM (inactive) | 73.1 µM (inactive) | > 100 µM (inactive) | > 100 µM (inactive) | > 100 µM (inactive) |  |  | 
2 | CC1(C)OC1COc1c2occc2cc2ccc(=O)oc12 (stereo not drawn) | > 100 µM (inactive) | > 100 µM (inactive) | > 100 µM (inactive) | > 100 µM (inactive) | > 100 µM (inactive) | 58.6 µM (inactive) | > 100 µM (inactive) | 38.8 µM (inactive) |  | > 100 µM (inactive) | > 100 µM (inactive) | > 100 µM (inactive) | > 100 µM (inactive) | > 100 µM (inactive) | > 100 µM (inactive) | > 100 µM (inactive) | > 100 µM (inactive) | > 100 µM (inactive) | > 100 µM (inactive) | > 100 µM (inactive)
3 | CCC1=C(C)C(=O)N/C1=C\c1[nH]c(C)c([C@H](C)CCN)c1C | 18.7 µM (inactive) | 18.6 µM (inactive) | 17.1 µM (inactive) | 16.5 µM (inactive) | 15.3 µM (inactive) | 14.4 µM (inactive) | 16.9 µM (inactive) | 16.3 µM (inactive) |  | 17.5 µM (inactive) | 15.8 µM (inactive) | 18.6 µM (inactive) | 14.5 µM (inactive) | 17 µM (inactive) | 12.8 µM (inactive) | 15.3 µM (inactive) | 20 µM (inactive) | 46.6 µM (inactive) | 0.0944 µM (active) | 23 µM (inactive)
4 | Nc1ccc(Oc2ccc(C34CC5C6CC7(c8ccc(Oc9ccc(N)cc9)cc8)CC5C(C3)C(C7)C6C4)cc2)cc1 | > 100 µM (inactive) | > 100 µM (inactive) | > 100 µM (inactive) | > 100 µM (inactive) | > 100 µM (inactive) | > 100 µM (inactive) | > 100 µM (inactive) | > 100 µM (inactive) | > 100 µM (inactive) | > 100 µM (inactive) | > 100 µM (inactive) | > 100 µM (inactive) | > 100 µM (inactive) | > 100 µM (inactive) | > 100 µM (inactive) | > 100 µM (inactive) | > 100 µM (inactive) | > 100 µM (inactive) |  | > 100 µM (inactive)
5 | C=CCCON(C(=O)OC(C)(C)C)C(C)(C)C | > 100 µM (inactive) | > 100 µM (inactive) | > 100 µM (inactive) | > 100 µM (inactive) | > 100 µM (inactive) | > 100 µM (inactive) | > 100 µM (inactive) | > 100 µM (inactive) | > 100 µM (inactive) | > 100 µM (inactive) | > 100 µM (inactive) | > 100 µM (inactive) | > 100 µM (inactive) | > 100 µM (inactive) |  | > 100 µM (inactive) | > 100 µM (inactive) | > 100 µM (inactive) | > 100 µM (inactive) | > 100 µM (inactive)
6 | CN(C)c1ccc(/C=N\NC(=O)Nc2cccc3ccccc23)cc1 | 4.03 µM (inactive) | 8.99 µM (inactive) | 0.208 µM (active) |  | 0.927 µM (active) | 0.215 µM (active) | 6.71 µM (inactive) | 11.7 µM (inactive) | 12.2 µM (inactive) | 19.4 µM (inactive) | 5.37 µM (inactive) | 6.98 µM (inactive) | 5.52 µM (inactive) | 9.91 µM (inactive) | 15.5 µM (inactive) | 1.53 µM (inactive) | 7.41 µM (inactive) |  | 4.4 µM (inactive) | 4.26 µM (inactive)
7 | O=C(CC(=O)N1N=C(N2CCCCC2)CC1c1ccccc1)Nc1ccccc1 (stereo not drawn) | > 100 µM (inactive) | > 100 µM (inactive) | > 100 µM (inactive) | > 100 µM (inactive) | > 100 µM (inactive) | > 100 µM (inactive) | > 100 µM (inactive) | > 100 µM (inactive) | > 100 µM (inactive) | > 100 µM (inactive) | > 100 µM (inactive) | > 100 µM (inactive) | > 100 µM (inactive) | > 100 µM (inactive) | > 100 µM (inactive) | > 100 µM (inactive) | > 100 µM (inactive) |  | > 100 µM (inactive) | > 100 µM (inactive)
8 | COC(=O)C12OC(C)(C(CC(=O)OC(C)(C)C)C1=O)C1C(=O)N(c3ccccc3)C(=O)C12 (stereo not drawn) | > 100 µM (inactive) | > 100 µM (inactive) | > 100 µM (inactive) | > 100 µM (inactive) | > 100 µM (inactive) |  | > 100 µM (inactive) | > 100 µM (inactive) | > 100 µM (inactive) | > 100 µM (inactive) | > 100 µM (inactive) | > 100 µM (inactive) | > 100 µM (inactive) | > 100 µM (inactive) | > 100 µM (inactive) | > 100 µM (inactive) | > 100 µM (inactive) | > 100 µM (inactive) |  | > 100 µM (inactive)
9 | C=C1C(=O)C=C[C@]2(C)CC[C@H]3C(=C)C(=O)O[C@@H]3[C@@H]12 | 1.97 µM (inactive) | 3.52 µM (inactive) |  | 15.1 µM (inactive) | 1.57 µM (inactive) | 3.17 µM (inactive) | 2.09 µM (inactive) | 2.35 µM (inactive) | 0.419 µM (active) | 1.33 µM (inactive) | 1.76 µM (inactive) | 0.9 µM (active) | 0.195 µM (active) | 1.29 µM (inactive) | 2.21 µM (inactive) | 1.88 µM (inactive) | 2.34 µM (inactive) | 1.39 µM (inactive) | 0.562 µM (active) | 0.579 µM (active)
10 | N#Cc1c(-c2ccccc2)cc(Nc2ccc(F)cc2)n2c1nc1ccccc12 | 3.66 µM (inactive) | 2.74 µM (inactive) | 2.81 µM (inactive) | 2.22 µM (inactive) | 3.11 µM (inactive) | 2.09 µM (inactive) | 2.94 µM (inactive) | 3.24 µM (inactive) | 3.55 µM (inactive) | 3.16 µM (inactive) | 3.35 µM (inactive) | 2.7 µM (inactive) | 1.83 µM (inactive) | 4.12 µM (inactive) | 4.62 µM (inactive) | 2.28 µM (inactive) | 2.26 µM (inactive) | 5.61 µM (inactive) | 3.26 µM (inactive) | 
11 | Nc1nc(S)c2c(N)n[nH]c2c1C(=O)Nc1ccccc1 | > 100 µM (inactive) | > 100 µM (inactive) | > 100 µM (inactive) |  | 42 µM (inactive) | 26.5 µM (inactive) | > 100 µM (inactive) | > 100 µM (inactive) | > 100 µM (inactive) | > 100 µM (inactive) | > 100 µM (inactive) |  | > 100 µM (inactive) | > 100 µM (inactive) | > 100 µM (inactive) | 50.2 µM (inactive) | > 100 µM (inactive) | > 100 µM (inactive) | > 100 µM (inactive) | 

Source: ChEMBL document CHEMBL1201862, “PubChem BioAssay data set” (2004)
